The source made the active and inactive calls. No cut-off for these calls is given here.
Columns and labels:
[1] = Cardiotoxicity in haploinsufficient FKBP12.6 expressing mouse assessed as reduction in non-sustained ventricular tachycardia at 0.2 to 1 uM under testing exercise followed by epinephrine injection relative to control; format: toxicity; conditions: in vivo
[2] = molecular target: T1, Ryanodine receptor 2 (Homo sapiens, UniProt Q92736); test: Induction of FKBP12.6 re-binding to PKA-phosphorylated-RyR2 (unknown origin) after 30 mins in presence of [35S]-FKBP12.6 by liquid scintillation counting
[3] = molecular target: T2, hERG (KCNH2) (Homo sapiens, UniProt Q12809); test: Inhibition of human ERG expressed in HEK293 cells at 0.01 uM after 5 mins at -80 mV holding potential by patch clamp assay; format: cell-based; conditions: HEK293 cells expressing human ERG
[4] = molecular target: T2, hERG (KCNH2); test: Inhibition of human ERG expressed in HEK293 cells at 0.1 uM after 5 mins at -80 mV holding potential by patch clamp assay; format: cell-based; conditions: HEK293 cells expressing human ERG
[5] = molecular target: T2, hERG (KCNH2); test: Inhibition of human ERG expressed in HEK293 cells at 1 uM after 5 mins at -80 mV holding potential by patch clamp assay; format: cell-based; conditions: HEK293 cells expressing human ERG
[6] = molecular target: T2, hERG (KCNH2); test: Inhibition of human ERG expressed in HEK293 cells at 10 uM after 5 mins at -80 mV holding potential by patch clamp assay; format: cell-based; conditions: HEK293 cells expressing human ERG
[7] = molecular target: T1, Ryanodine receptor 2; test: Induction of FKBP12.6 re-binding to PKA-phosphorylated-RyR2 (unknown origin) at 10 to 1000 nM after 30 mins in presence of [35S]-FKBP12.6 by liquid scintillation counting
[8] = system: Mus musculus; test: Antiarrhythmic activity in haploinsufficient FKBP12.6 expressing mouse assessed as plasma concentration showing prevention of sudden cardiac death dosed via osmotic mini-pump under testing exercise followed by epinephrine injection relative to control; format: functional, organism-based
[9] = system: Mus musculus; test: Antiarrhythmic activity in haploinsufficient FKBP12.6 expressing mouse assessed as plasma concentration showing prevention of cardiac arrhythmias dosed via osmotic mini-pump under testing exercise followed by epinephrine injection relative to control; format: functional, organism-based
[10] = species: Mus musculus; test: Induction of cardiac function improvement in myocardial infarction-induced acute heart failure mouse model at plasma concentration 200 nM after 7 days post myocardial infarction; format: functional
[11] = species: Mus musculus; test: Induction of cardiac function improvement in myocardial infarction-induced acute heart failure mouse model subjected to permanent ligation of left anterior descending coronary artery assessed as increase in fractional shortening at plasma concentration of 100 to 200 nM after 2 weeks post myocardial infarction by echocardiography; format: functional
[12] = species: Mus musculus; test: Induction of cardiac function improvement in myocardial infarction-induced acute heart failure mouse model subjected to permanent ligation of left anterior descending coronary artery assessed as increase in cardiac contractility at plasma concentration 200 nM after 7 days post myocardial infarction; format: functional
[13] = molecular target: T1, Ryanodine receptor 2; test: Induction of normalization of single channel closed state of PKA phosphorylated RyR2 P2328S mutant (unknown origin) assessed as channel open probability level at 0.1 umol/L (reference value: 14.4%)
[14] = molecular target: T1, Ryanodine receptor 2; test: Induction of normalization of single channel closed state of wild type PKA phosphorylated RyR2 (unknown origin) assessed as channel open probability at 0.1 umol/L relative to control
[15] = species: Mus musculus; test: Antiarrhythmic activity in haploinsufficient FKBP12.6 expressing mouse assessed as reduction in sustained ventricular tachycardia at 0.2 to 1 uM under testing exercise followed by epinephrine injection relative to control; format: functional
[16] = molecular target: T1, Ryanodine receptor 2; test: Induction of calstabin-2 binding to RyR2 P2328S mutant (unknown origin) at 0.1 umol/L
[17] = Cardiotoxicity in FKBP12.6 deficient mouse implanted with osmotic mini-pump assessed as reduction in resting heart rate in at 0.5 mg/kg/hr for 7 hrs; format: toxicity, organism-based; conditions: in vivo
[18] = Cardiotoxicity in haploinsufficient FKBP12.6 expressing mouse implanted with osmotic mini-pump assessed as reduction in resting heart rate in at 0.5 mg/kg/hr for 7 hrs; format: toxicity, organism-based; conditions: in vivo
[19] = system: Mus musculus; test: Reduction in PKA-phosphorylation of RyR2 in myocardial infarction-induced heart failure mouse model at 0.5 mg/kg/hr after 28 days post myocardial infarction; format: functional, organism-based
[20] = species: Mus musculus; test: Reduction in RyR2 channel opening probability in haploinsufficient FKBP12.6+/- mouse in the presence of […]; format: functional
[21] = molecular target: Ryanodine receptor 1 (Mus musculus) (UniProt E9PZQ0); test: Induction of normalization of RYR1 function in mdx dystrophin deficient mouse soleus muscle assessed as increase in channel open probability at 1 uM; format: tissue-based
[22] = molecular target: Ryanodine receptor 1 (Mus musculus) (UniProt E9PZQ0); test: Induction of normalization of RYR1 function in mdx dystrophin deficient mouse soleus muscle assessed as increase in average channel open dwell time at 1 uM; format: tissue-based
[23] = molecular target: Ryanodine receptor 1 (Mus musculus) (UniProt E9PZQ0); test: Induction of normalization of RYR1 function in mdx dystrophin deficient mouse soleus muscle assessed as decrease in average channel close dwell time at 1 uM; format: tissue-based
[24] = system: Mus musculus; test: Improvement in soleus muscle fatigability in myocardial infarction-induced heart failure mouse model at 0.5 mg/kg/day relative to control; format: functional, organism-based
[25] = system: Mus musculus; test: Improvement in soleus muscle fatigability in myocardial infarction-induced heart failure calstabin2-deficient knockout mouse at 0.5 mg/kg/day relative to control; format: functional, organism-based
[26] = species: Mus musculus; test: Antiarrhythmic activity in haploinsufficient FKBP12.6 expressing mouse assessed as reduction in sustained ventricular tachycardia at 1 uM under testing exercise followed by epinephrine injection relative to control; format: functional
[27] = molecular target: Ryanodine receptor 1 (Mus musculus) (UniProt E9PZQ0); test: Normalization of RYR1 in myocardial infarction-induced heart failure mouse soleus muscle assessed as increase in average channel open dwell time; format: tissue-based
[28] = molecular target: Ryanodine receptor 1 (Mus musculus) (UniProt E9PZQ0); test: Normalization of RYR1 in myocardial infarction-induced heart failure mouse soleus muscle assessed as decrease in average channel close dwell time; format: tissue-based
[29] = molecular target: Ryanodine receptor 1 (Mus musculus) (UniProt E9PZQ0); test: Induction of calstabin-1 binding to RyR1 in mouse skeletal muscle at >50 nM
[30] = Cardiotoxicity in haploinsufficient FKBP12.6 expressing mouse assessed as reduction in non-sustained ventricular tachycardia at 1 uM under testing exercise followed by epinephrine injection relative to control; format: toxicity; conditions: in vivo
[31] = molecular target: Ryanodine receptor 1 (Mus musculus) (UniProt E9PZQ0); test: Induction of calstabin-1 binding to RYR1 in myocardial infarction-induced heart failure wild type mouse soleus muscle at 0.5 mg/kg/day dosed via implantable osmotic minipumps; format: organism-based
[32] = molecular target: Ryanodine receptor 1 (Mus musculus) (UniProt E9PZQ0); test: Inhibition of PKA-induced RyR1 phosphorylation in myocardial infarction-induced heart failure mouse soleus muscle at 0.5 mg/kg/day dosed via implantable osmotic minipumps; format: organism-based
[33] = molecular target: Ryanodine receptor 1 (Mus musculus) (UniProt E9PZQ0); test: Induction of calstabin-1 binding to RYR1 in myocardial infarction-induced heart failure calsiabin2-/- mouse soleus muscle at 0.5 mg/kg/day dosed via implantable osmotic minipumps; format: organism-based
[34] = molecular target: Ryanodine receptor 1 (Mus musculus) (UniProt E9PZQ0); test: Induction of calstabin-2 binding to RyR1 in mouse skeletal muscle at >50 nM
[35] = molecular target: Ryanodine receptor 1 (Mus musculus) (UniProt E9PZQ0); test: Induction of calstabin-1 binding to PKA-phosphorylated RyR1 in mouse skeletal muscle at >50 nM
[36] = molecular target: Ryanodine receptor 1 (Mus musculus) (UniProt E9PZQ0); test: Induction of calstabin-2 binding to PKA-phosphorylated RyR1 in mouse skeletal muscle at >50 nM
[37] = molecular target: L-type calcium channel (Mus musculus, UniProt Q01815+Q02789+Q99246+Q9JIS7); test: Inhibition of L-type Ca2+ channel in mouse cardiomyocytes at holding potential of -80 or -40 mV by whole cell patch clamp assay; format: cell-based

T2 sequence (Q12809 whole entry): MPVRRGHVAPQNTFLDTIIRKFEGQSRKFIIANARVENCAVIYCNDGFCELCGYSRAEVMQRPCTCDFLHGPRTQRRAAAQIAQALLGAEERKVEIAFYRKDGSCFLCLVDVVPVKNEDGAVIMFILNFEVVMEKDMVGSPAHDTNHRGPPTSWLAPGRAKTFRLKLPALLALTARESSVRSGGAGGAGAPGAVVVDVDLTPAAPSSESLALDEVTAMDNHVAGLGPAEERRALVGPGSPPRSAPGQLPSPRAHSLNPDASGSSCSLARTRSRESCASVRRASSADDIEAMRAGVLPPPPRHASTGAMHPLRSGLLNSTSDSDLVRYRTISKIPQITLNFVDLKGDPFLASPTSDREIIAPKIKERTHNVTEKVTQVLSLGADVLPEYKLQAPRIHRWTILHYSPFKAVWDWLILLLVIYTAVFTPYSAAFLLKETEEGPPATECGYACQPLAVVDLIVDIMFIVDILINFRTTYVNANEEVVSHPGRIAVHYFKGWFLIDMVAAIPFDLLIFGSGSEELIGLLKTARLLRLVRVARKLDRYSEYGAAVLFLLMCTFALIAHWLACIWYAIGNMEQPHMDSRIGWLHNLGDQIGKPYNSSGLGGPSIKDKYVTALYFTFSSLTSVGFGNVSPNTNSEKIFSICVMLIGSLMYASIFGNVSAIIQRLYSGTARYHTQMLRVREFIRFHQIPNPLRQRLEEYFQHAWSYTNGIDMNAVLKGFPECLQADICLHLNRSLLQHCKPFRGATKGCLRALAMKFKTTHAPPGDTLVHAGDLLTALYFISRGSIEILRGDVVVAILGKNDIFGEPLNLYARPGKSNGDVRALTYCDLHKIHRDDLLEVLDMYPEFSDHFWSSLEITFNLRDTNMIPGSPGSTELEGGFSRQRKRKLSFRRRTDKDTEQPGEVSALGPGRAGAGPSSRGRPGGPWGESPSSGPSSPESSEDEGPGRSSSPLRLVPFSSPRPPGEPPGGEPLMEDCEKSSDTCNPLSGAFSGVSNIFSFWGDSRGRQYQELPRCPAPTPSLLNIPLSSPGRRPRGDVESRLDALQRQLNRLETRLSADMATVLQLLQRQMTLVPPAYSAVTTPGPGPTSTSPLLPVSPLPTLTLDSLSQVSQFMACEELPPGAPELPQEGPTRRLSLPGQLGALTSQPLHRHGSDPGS

COc1ccc2c(c1)CN(C(=O)C(=O)O)CCS2 [ALADORIAN]
Activity [1]: Non-Toxic

COc1ccc2c(c1)CN([P@@](=O)(OC)c1ccccc1)CCS2
EC50 [2]: 174 nM

c1ccc2c(c1)CNCCS2
EC50 [2]: 100 nM

COc1ccc2c(c1)CN(C(=O)C(=O)O)CCS2(=O)=O
inhibition at 5 min, 0.01 µM [3]: 1.6%
inhibition at 5 min, 0.1 µM [4]: 2.5%
inhibition at 5 min, 1 µM [5]: 4.6%
inhibition at 5 min, 10 µM [6]: 7.4%

COc1ccc2c(c1)CN(C(=O)c1ccc(N=[N+]=[N-])cc1O)CCS2
inhibition at 5 min, 0.01 µM [3]: 1.3%
inhibition at 5 min, 0.1 µM [4]: 3.6%
inhibition at 5 min, 1 µM [5]: 4.1%
inhibition at 5 min, 10 µM [6]: 14%

COc1ccc2c(c1)CN(C(=O)C(=O)O)CCS2
Activity [7]: Active
Cp [8]: 0.02 to 1 µM
Cp [9]: 0.02 to 1 µM
Activity [10]: Active
Activity [11]: Active
Activity [12]: Active
Activity [13]: 0.3%
Activity [14]: Active
Activity [15]: Active
Activity [16]: Active

COc1ccc2c(c1)CN([P@](=O)(OC)c1ccccc1)CCS2
EC50 [2]: 182 nM

COc1ccc2c(c1)CN(C)CCS2
inhibition at 5 min, 0.01 µM [3]: 2.9%
inhibition at 5 min, 0.1 µM [4]: 4%
inhibition at 5 min, 1 µM [5]: 6.2%
inhibition at 5 min, 10 µM [6]: 32.1%

COc1ccc2c(c1)CN(C(=O)C(=O)O)CCS2 [ALADORIAN SODIUM]
inhibition at 5 min, 0.01 µM [3]: 0.2%
inhibition at 5 min, 0.1 µM [4]: 6%
inhibition at 5 min, 1 µM [5]: 5.5%
inhibition at 5 min, 10 µM [6]: 6.7%

C=CC(=O)N1CCSc2ccc(OC)cc2C1
EC50 [2]: 50 nM

O=C(O)C(=O)N1CCSc2ccccc2C1
inhibition at 5 min, 0.01 µM [3]: 1.3%
inhibition at 5 min, 0.1 µM [4]: 7.5%
inhibition at 5 min, 1 µM [5]: 3.6%
inhibition at 5 min, 10 µM [6]: 4.1%

COc1ccc2c(c1)CN(C(=O)N1CCCCC1)CCS2
inhibition at 5 min, 0.01 µM [3]: 1.8%
inhibition at 5 min, 0.1 µM [4]: 3.7%
inhibition at 5 min, 1 µM [5]: 6.1%
inhibition at 5 min, 10 µM [6]: 24.2%

COc1ccc2c(c1)CN(S(=O)(=O)Nc1cccnc1)CCS2
EC50 [2]: 77 nM

COc1ccc2c(c1)CN(C(=O)CCN1CCC(Cc3ccccc3)CC1)CCS2.Cl
Activity [17]: Non-Toxic
Activity [18]: Non-Toxic
Cp [8]: 1 µM
Cp [9]: 1 µM
Activity [19]: Active
Activity [20]: Active
Activity [21]: Active
TIME [22]: 4.44e-07 h
TIME [23]: 0.000287 h
Activity [24]: Active
Activity [25]: Active
Activity [26]: Active
TIME [27]: 4.17e-07 to 5e-07 h
TIME [28]: 0.000435 to 0.000441 h
Activity [29]: Active
Activity [30]: Non-Toxic
Activity [31]: Active
inhibition [32]: Active
Activity [33]: Active
Activity [34]: Active
Activity [35]: Active
Activity [36]: Active

O=C(NO)N1CCSc2ccccc2C1
inhibition at 5 min, 0.01 µM [3]: 1.9%
inhibition at 5 min, 0.1 µM [4]: 4.8%
inhibition at 5 min, 1 µM [5]: 1.3%
inhibition at 5 min, 10 µM [6]: 9.5%

O=C(N1CCCCC1)N1CCSc2ccccc2C1
inhibition at 5 min, 0.01 µM [3]: 2.5%
inhibition at 5 min, 0.1 µM [4]: 4.2%
inhibition at 5 min, 1 µM [5]: 5.7%
inhibition at 5 min, 10 µM [6]: 47.3%

COc1ccc2c(c1)CN(C(=O)N1CCN(Cc3ccc4c(c3)OCO4)CC1)CCS2
inhibition at 5 min, 0.01 µM [3]: 2.7%
inhibition at 5 min, 0.1 µM [4]: 9.7%
inhibition at 5 min, 1 µM [5]: 29.6%
inhibition at 5 min, 10 µM [6]: 78%

COC(=O)C(=O)N1CCSc2ccc(OC)cc2C1
inhibition at 5 min, 0.01 µM [3]: 0.2%
inhibition at 5 min, 0.1 µM [4]: 7.3%
inhibition at 5 min, 1 µM [5]: 2.7%
inhibition at 5 min, 10 µM [6]: 13.6%

COC(=O)C1=C(C)NC(C)=C(C(=O)OC)C1c1ccccc1[N+](=O)[O-] [NIFEDIPINE]
inhibition (INH) [37]: Active

— ChEMBL document CHEMBL3880390, “Agents for preventing and treating disorders involving modulation of the RYR receptors” (2014)
